Target: T1, RORγ (Homo sapiens, UniProt P51449)
T1 sequence (P51449 269-508 limits assumed): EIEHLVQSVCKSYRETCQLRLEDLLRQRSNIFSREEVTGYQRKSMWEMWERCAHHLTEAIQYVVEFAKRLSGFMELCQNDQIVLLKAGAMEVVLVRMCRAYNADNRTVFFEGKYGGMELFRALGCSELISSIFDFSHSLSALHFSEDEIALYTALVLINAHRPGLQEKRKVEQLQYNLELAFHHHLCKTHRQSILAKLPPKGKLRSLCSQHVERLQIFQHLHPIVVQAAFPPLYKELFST
Assay: RORγ GAL4 reporter gene assay
Conditions: mean pIC50, inhibition of RORγ (GAL4-RORγ-LBD) in 293FT cells, luciferase readout, overnight incubation
Source text: The RORγ ligand-binding domain (LBD) was fused to the yeast GAL4 DNA binding domain (DBD) and placed under the control of the human cytomegalovirus (CMV) immediate early promoter, using expression vector pFN26A (Promega) and standard recombinant DNA cloning methods.
To monitor the inhibitory effect of compounds on RORγ, a transcriptional reporter construct was used. The pGL4.35 vector (Promega) contains nine copies of the GAL4 Upstream Activator Sequence (UAS). This sequence drives the transcription of the luciferase reporter gene luc2P in response to binding of a fusion protein containing the GAL4 DNA binding domain, as for example expressed by the GAL4-RORγ-LBD and GAL4-VP16 expression vectors described above.
The day after transfection, cells were plated into 96 well plates, test compound was added and the plates were incubated overnight. Subsequently, the firefly luciferase activity was quantified using luciferase detection reagent and luminescence readout.
1500 μL of this reagent mixture was added to 5 μg of GAL4 fusion protein expression vector and 5 μg of the transcriptional reporter construct, and incubated at RT for 20 minutes.
Subsequently, the cells were washed with Phosphate Buffered Saline (PBS) (Lonza), after which the PBS was removed. To dissociate the cells, 1 ml of TrypLE Express (Invitrogen) was added to the flask, followed by incubation at RT until the cells visually started to detach. Cells were collected in 5 mL of assay medium (DMEM culture medium (Lonza), 10% dialyzed FBS (Invitrogen) and Pen/Strep (Lonza)) to achieve a single cell suspension. 10×10^6 cells were spun down and re-suspended in 10 mL of assay medium. Subsequently, the cell suspension was added to the transfection mix tube, and then transferred as a whole to a T75 flask (Greiner), followed by overnight (16-24 hours) incubation at 37° C. and 5% CO2.
For compound screening, the cells were harvested (as described above) and counted. […] 80 μL of cell suspension (60,000 cells) was plated per well into a white, flat bottom, tissue culture treated, 96 well screening plates (Greiner).
Test compounds were diluted, starting from a 10 mM dimethylsulfoxide (DMSO) stock solution, to serial dilutions in DMSO at 500× the final test concentration. Subsequently, these solutions were diluted to 5× the final test concentration in two 10-fold-dilution steps in assay medium. The final DMSO concentration of the 5× test compound solution was 1%. 20 μL of the 5× test compound solution was added to each test well of the 96 well plate previously plated with 80 μl cell suspension, resulting in the final test concentration with 0.2% DMSO.
The plates were incubated overnight (16-24 hours) at 37° C. and 5% CO2.
For the luciferase readout, the luciferase reagent (Britelite Plus, Perkin Elmer) was brought to RT. […] The luciferase luminescence signal was measured using a Wallac Victor Microplate Reader (Perkin Elmer).
The half maximum inhibitory concentration (IC50) values for the test compounds were calculated from the luciferase signal using GraphPad Prism software (GraphPad Software).

Structure (SMILES)	IC50
CCS(=O)(=O)c1ccc(CC(=O)Nc2cc(Cl)c(C(O)(C(F)(F)F)C(F)(F)F)cc2OC)cc1 [Example 22, N-(5-chloro-4-(1,1,1,3,3,3-hexafluoro-2-hydroxypropan-2-yl)-2-methoxyphenyl)-2-(4-(ethylsulfonyl)phenyl)acetamide]	≤ 1000 nM
O=C(Cc1ccc(S(=O)(=O)CC2CC2)cc1)Nc1ccc(C(O)(c2ccccc2)C(F)(F)F)cc1 (stereo not shown) [Example 88, 2-(4-((cyclopropylmethyl)sulfonyl)phenyl)-N-(4-(2,2,2-trifluoro-1-hydroxy-1-phenylethyl)phenyl)acetamide]	≤ 100 nM
O=C(Cc1ccc(S(=O)(=O)CC2CC2)cc1)Nc1ccc(C(O)(C(F)(F)F)C(F)(F)F)cc1Cl [Example 98, N-(2-chloro-4-(1,1,1,3,3,3-hexafluoro-2-hydroxypropan-2-yl)phenyl)-2-(4-((cyclopropylmethyl)sulfonyl)phenyl)acetamide]	≤ 100 nM
CCS(=O)(=O)c1ccc(CC(=O)Nc2ccc(C(O)(c3ccccc3)C(F)(F)F)cc2)cc1 (stereo not shown) [Example 97, 2-(4-(ethylsulfonyl)phenyl)-N-(4-(2,2,2-trifluoro-1-hydroxy-1-phenylethyl)phenyl)acetamide]	≤ 1000 nM
CCCCOC(c1ccc(NC(=O)Cc2ccc(S(=O)(=O)CC3CC3)cc2)cc1)(C(F)(F)F)C(F)(F)F [Example 52, N-(4-(2-butoxy-1,1,1,3,3,3-hexafluoropropan-2-yl)phenyl)-2-(4-((cyclopropylmethyl)sulfonyl)phenyl)acetamide]	≤ 100 nM
O=C(Cc1ccc(S(=O)(=O)CC2CC2)cc1)Nc1ccc(C(O)(Cc2ccccc2)C(F)(F)F)cc1 (stereo not shown) [Example 87, 2-(4-cyclopropylmethanesulfonylphenyl)-N-[4-(1,1,1-trifluoro-2-hydroxy-3-phenylpropan-2-yl)phenyl]acetamide]	≤ 100 nM
O=C(Cc1ccc(S(=O)(=O)CC2CC2)cc1)Nc1ccc(C(O)(C2CCCC2)C(F)(F)F)cc1 (stereo not shown) [Example 75, N-(4-(1-cyclopentyl-2,2,2-trifluoro-1-hydroxyethyl)phenyl)-2-(4-((cyclopropylmethyl)sulfonyl)phenyl)acetamide]	≤ 10 nM
CCS(=O)(=O)c1ccc(CC(=O)Nc2ccc(C(O)(CC(C)C)C(F)(F)F)cc2)cc1 (stereo not shown) [Example 66, 2-(4-(ethylsulfonyl)phenyl)-N-(4-(1,1,1-trifluoro-2-hydroxy-4-methylpentan-2-yl)phenyl)acetamide]	≤ 100 nM
CCS(=O)(=O)c1ccc(CC(=O)Nc2ccc(C(O)(C(F)(F)F)C(F)(F)F)c(C)c2)cc1 [Example 29, 2-(4-(ethylsulfonyl)phenyl)-N-(4-(1,1,1,3,3,3-hexafluoro-2-hydroxypropan-2-yl)-3-methylphenyl)acetamide]	≤ 100 nM
CCNS(=O)(=O)c1ccc(CC(=O)Nc2ccc(C(O)(C(F)(F)F)C(F)(F)F)cc2)cc1 [Example 10, 2-(4-(N-ethylsulfamoyl)phenyl)-N-(4-(1,1,1,3,3,3-hexafluoro-2-hydroxypropan-2-yl)phenyl)acetamide]	≤ 1000 nM
Nc1cc(C(O)(C(F)(F)F)C(F)(F)F)ccc1NC(=O)Cc1ccc(S(=O)(=O)CC2CC2)cc1 [Example 57, N-(2-amino-4-(1,1,1,3,3,3-hexafluoro-2-hydroxypropan-2-yl)phenyl)-2-(4-((cyclopropylmethyl)sulfonyl)phenyl)acetamide]	≤ 1000 nM
COC(c1ccc(NC(=O)Cc2ccc(S(=O)(=O)CC3CC3)cc2)cc1)(C(F)(F)F)C(F)(F)F [Example 54, 2-(4-((cyclopropylmethyl)sulfonyl)phenyl)-N-(4-(1,1,1,3,3,3-hexafluoro-2-methoxypropan-2-yl)phenyl)acetamide]	≤ 100 nM
CCS(=O)(=O)c1ccc(CC(=O)Nc2ccc(C(O)(C(F)(F)F)C(F)(F)F)cc2F)cc1 [Example 28, 2-(4-(ethylsulfonyl)phenyl)-N-(2-fluoro-4-(1,1,1,3,3,3-hexafluoro-2-hydroxypropan-2-yl)phenyl)acetamide]	≤ 1000 nM

From patent US9738600B2, “ROR gamma (RORγ) modulators” (LEAD PHARMA CEL MODELS IP B.V., priority 2013, dated 2017)
